Literature values in patent publication US12508224B2, “Treating microvascular dysfunction” (EndoProtech, Inc., priority 2018, dated 2025).

Test system: glycocalyx

## CCCCCCCCCCCCC/C=C/[C@@H](O)[C@@H](N)COP(=O)(O)O [SP, sphingosine-1-phosphate]
  levels needed in plasma to protect the stability of the glycocalyx: 100 to 300 nM
